According to US6682892B2, “Method for treating herpes viruses” (priority 2000, dated 2004):
Like-named read-outs stand apart in the source and are kept apart here.

How the values were obtained:
Assay type in all cases: cell-based
[1] = tested on: HCMV AD169-M1 (V823A, V824L); assay: Plaque reduction assay, 4-oxo-DHQ resistant HCMV AD169-M1
Protocol: (§1) Antiviral activity of compounds against herpesviruses such as HSV-1, HSV-2, or HCMV can be measured using plaque reduction assays. 0.1 ml of media containing approximately 50 PFU of virus is added to each well of a 24-well cell culture dish containing a confluent monolayer of cells (Vero cells for HSV-1 and HSV-2, HFF cells for HCMV). Compounds are dissolved in 100% DMSO and diluted in 100% DMSO as 200× stocks of the desired final drug concentration. Typically 5-6 two-fold dilutions are prepared for each compound. Dilutions of compounds are then added to media containing 0.8% CMC resulting in a final 1× drug concentration. After the virus-infected cells have incubated for 1 h at 37° C., the virus innoculum is removed and 1 ml of media containing 0.8% CMC and the various concentrations of compound is added to each well of the dish. The dish is incubated at 37° C. for approximately 2-3 days (HSV-1 and HSV-2) or 6-9 days (HCMV) to allow sufficient growth of virus to form plaques in the cell monolayer. Plaques can be observed and counted microscopically or by staining the cells with 0.1% crystal violet in 20% ethanol. […] Antiviral activity of a compound is expressed as the concentration of compound predicted to reduce the number of plaques in a well by 50% (IC50). The IC50 values are calculated by plotting the per cent inhibition vs. concentration of compound using EXCEL software for linear regression.
A plasmid containing the wild-type HCMV polymerase gene is modified to contain the V823A or V823A and V824L mutations using a site-directed mutagenesis Kit (Stratagene Corp.) and following the manufactures's protocol. HFF cells are plated into T25 tissue culture flasks to achieve 80% confluency at the time of the transfection. Wild type HCMV AD 169 DNA and plasmid DNA containing the mutant HCMV polymerase gene are mixed at a ratio of 1:2 (2 ug of viral DNA to 4 ug of plasmid DNA). DNA's are transfected using superfect transfection reagent according to methods recommended by the manufacturer (Quiagen Inc.). Cells are harvested five days posttransfection, freeze-thawed to release virus and half of the sample is used to infect HFF cell monolayers. Cells are overlayed with media containing 20 uM 4-oxo-DHQ compound 2 (see FIG. 1). Serial passage is repeated seven times in the presence of 20 uM compound 2 and virus isolates are then plaque purified three times prior to preparation of viral stock.
In order to isolate an HCMV resistant mutant marker rescue experiments are done. Plasmids containing the mutant polymerase genes are transfected into HFF cells along with wild type HCMV AD169 DNA. The resulting virus is then serially passaged in the presence of 20 uM compound 1 (see FIG. 1). A 4-oxo-DHQ resistant virus is isolated from marker rescue studies done with the HCMV polymerase gene containing mutations that result in the V823A, V824L amino acid changes, but not with the gene containing V823A change alone.

HCMV AD169 = assay: Plaque reduction assay, HCMV AD169
Protocol: as §1

HSV-2 MS = assay: Plaque reduction assay, HSV-2 MS
Protocol: as §1
(§2) A panel of viruses consisting of four strains of HSV-1 (KOS, F, DJL, Patton) and three strains of HSV-2 (MS, 35D, 186) are tested in a plaque reduction assay against four different 4-oxo-DHQ compounds (#1, 2, 4, 5 as shown in FIG. 1), and one 4-oxo-DHTP compound (#3 as shown in FIG. 1) and against Acyclovir. The six drugs inhibited replication of the seven virus strains with IC50 values ranging from 2-10 μM (Table 1). In order to select for 4-oxo-DHQ resistant mutants, HSV-1 strains KOS, F, and DJL along with HSV-2 strains 186 and MS are serially passaged in the presence of 20 uM compound 1. Following the seventh passage, 4-oxo-DHQ resistant virus from each strain are plaque purified three times and high-titer stocks are made.

HSV-1 KOS = assay: Plaque reduction assay, HSV-1 KOS
Protocol: as §1, §2

HSV-1 KOS-M1 (V823A) = assay: Plaque reduction assay, 4-oxo-DHQ resistant HSV-1 KOS-M1
Protocol: as §1
(§3) Vero cells are plated out at a density of 3.5×10^5 cells per well in a six well tissue culture plate. Cells are infected with HSV-1 KOS at a multiplicity of infection (moi) of 0.1 pfu/cell and 1 h post infection the cells are overlayed with 3 ml media containing 20 uM of a 4-oxo-DHQ. Cultures are incubated for 20 h at 37° C., freeze/thawed to release cell-associated virus, and 0.1 ml of culture is used to infect a new monolayer of Vero cells (one passage). Serial passage is repeated seven times in the presence of 20 uM drug. Virus isolates are then plaque purified three times prior to preparation of stocks. 4-oxo-DHQ resistant HSV-1 and HSV-2 may also be selected by the marker transfer method described below using wild-type HSV DNA and the corresponding mutant HSV polymerase gene.
as §2

HSV-2 MS-M1 (V826A) = assay: Plaque reduction assay, 4-oxo-DHQ resistant HSV-2 MS-M1
Protocol: as §1, §3, §2

HSV-1 Patton = assay: Plaque reduction assay, HSV-1 Patton; settings: Table 1, plaque reduction, Vero cells
Protocol: as §1, §2

HSV-1 DJL = assay: Plaque reduction assay, HSV-1 DJL; settings: Table 1, plaque reduction, Vero cells
Protocol: as §1, §2

HSV-1 F = assay: Plaque reduction assay, HSV-1 F; settings: Table 1, plaque reduction, Vero cells
Protocol: as §1, §2

HSV-2 186 = assay: Plaque reduction assay, HSV-2 186; settings: Table 1, plaque reduction, Vero cells
Protocol: as §1, §2

HSV-2 35D = assay: Plaque reduction assay, HSV-2 35D; settings: Table 1, plaque reduction, Vero cells
Protocol: as §1, §2

[2] = Human betaherpesvirus 5, AD169, read-out: HCMV AD169 - M1 IC50 (μM)
[3] = Human betaherpesvirus 5, AD169, Table 4, plaque reduction, wild type, read-out: HCMV AD169 IC50
[4] = Human betaherpesvirus 5, AD169, Table 5, wild type strain, read-out: Plaque Reduction Assay - IC50 (μM) HCMV AD169
[5] = Table 5, wild type strain, read-out: Plaque Reduction Assay - IC50 (μM) HSV-2 MS
[6] = Table 5, mutant selected for 4-oxo-DHQ resistance, read-out: Plaque Reduction Assay - IC50 (μM) HCMV AD169-M1
[7] = Table 5, wild type strain, read-out: Plaque Reduction Assay - IC50 (μM) HSV-1 KOS
[8] = Table 5, wild type strain, read-out: Plaque Reduction Assay - IC50 (μM) HCMV AD169
[9] = Table 5, mutant selected for 4-oxo-DHQ resistance, read-out: Plaque Reduction Assay - IC50 (μM) HSV-1 KOS-M1
[10] = Table 5, mutant selected for 4-oxo-DHQ resistance, read-out: Plaque Reduction Assay - IC50 (μM) HSV-2 MS-M1
[11] = Table 1, plaque reduction, Vero cells, read-out: IC50 (uM), HSV-2 MS
[12] = Table 1, plaque reduction, Vero cells, read-out: IC50 (uM), HSV-1 KOS

Compound | IC50 (HSV-2 MS; [5]) | IC50 [1, 6] | IC50 (HSV-1 KOS; [7]) | IC50 (HCMV AD169; [8]) | IC50 (HSV-1 KOS-M1 (V823A); [9]) | IC50 (HSV-2 MS-M1 (V826A); [10]) | other results
Nc1ccn(C[C@@H](CO)OCP(=O)(O)O)c(=O)n1 [Cidofovir, reference compound] | – | – | – | – | – | – | IC50 [1, 2]: 0.6 µM; increase in IC50 / change in sensitivity, HCMV AD169-M1 [1]: < 2 fold; IC50 (HCMV AD169; [3]): 0.3 µM; IC50 (HCMV AD169; [4]): 0.4 µM
Cn1cc(C(=S)NCc2ccc(Cl)cc2)c(=O)c2cc(C#CCO)ccc21 [Compound 13] | 5.3 µM | > 16 µM | 5.5 µM | 2.7 µM | < 25 µM | > 50 µM | –
O=C(NCc1ccc(Cl)cc1)c1cn(C2COC2)c2ccc(CN3CCOCC3)cc2c1=O [Compound 11] | 3 µM | 3.9 µM | 3.1 µM | 0.7 µM | > 50 µM | > 50 µM | –
CN(Cc1cc2c(=O)c(C(=O)NCc3ccc(Cl)cc3)cn(C)c2s1)CC(O)c1ccccc1 (racemic) [Compound 8] | 2.3 µM | 1.1 µM | 5.1 µM | < 0.1 µM | > 50 µM | > 50 µM | –
O=c1[nH]c(=O)n([C@H]2C[C@H](O)[C@@H](CO)O2)cc1I [Iudr, Iododeoxyuridine, reference compound] | 5 µM | – | 1.1 µM | – | 0.8 µM | 6.1 µM | –
Cn1cc(C(=O)NCc2ccc(Br)cc2)c(=O)c2cc(CN3CCOCC3)sc21 [Compound 10] | 29.2 µM | > 16 µM | 15.8 µM | 1.1 µM | > 50 µM | > 50 µM | –
Nc1nc(O)c2ncn(COC(CO)CO)c2n1 [Ganciclovir, reference compound] | – | – | – | – | – | – | IC50 [1, 2]: 1 µM; increase in IC50 / change in sensitivity, HCMV AD169-M1 [1]: < 2 fold; IC50 (HCMV AD169; [3]): 0.9 µM; IC50 (HCMV AD169; [4]): 0.8 µM
O=C(O)P(=O)(O)O [PFA, Foscarnet, reference compound] | – | – | – | – | – | – | IC50 ([1]; Human betaherpesvirus 5, AD169, read-out: Plaque Reduction Assay - IC50 (μM) HCMV AD169-M1): < 20 µM; IC50 (HCMV AD169; [4]): 38 µM
O=C(NCc1ccc(Cl)cc1)c1cnc2c(F)cccc2c1O [Compound 6] | 28.8 µM | > 16 µM | 24.6 µM | 5.1 µM | > 50 µM | > 50 µM | –
O=C(NCc1ccc(Cl)cc1)c1cn(N2CCOCC2)c2ccc(CN3CCOCC3)cc2c1=O [Compound 5] | – | – | – | – | – | – | IC50 (HSV-1 Patton): 10 µM; IC50 (HSV-1 DJL): 2.7 µM; IC50 (HSV-2 MS; [11]): 2.5 µM; IC50 (HSV-1 F): 2.6 µM; IC50 (HSV-2 186): 4.2 µM; IC50 (HSV-1 KOS; [12]): 3.3 µM; IC50 (HSV-2 35D): 8.1 µM
Nc1nc2c(ncn2COCCO)c(=O)[nH]1 [ACV, Acyclovir, reference compound] | – | – | – | – | – | – | IC50 (HSV-1 Patton; Human alphaherpesvirus 1): 9.3 µM; IC50 (HSV-1 DJL; Human alphaherpesvirus 1): 1.8 µM; IC50 (HSV-2 MS; Human alphaherpesvirus 2, Table 1, plaque reduction, Vero cells, read-out: IC50 (uM), HSV-2 MS): 10 µM; IC50 (HSV-2 MS; Human alphaherpesvirus 2, Table 5, wild type strain, read-out: Plaque Reduction Assay - IC50 (μM) HSV-2 MS): 2.4 µM; IC50 (HSV-1 F; Human alphaherpesvirus 1): 1.3 µM; IC50 (HSV-2 186; Human alphaherpesvirus 2): > 10 µM; IC50 (HSV-1 KOS; Human alphaherpesvirus 1, Table 1, plaque reduction, Vero cells, read-out: IC50 (uM), HSV-1 KOS): 3.6 µM; IC50 (HSV-1 KOS; Human alphaherpesvirus 1, Table 5, wild type strain, read-out: Plaque Reduction Assay - IC50 (μM) HSV-1 KOS): 3.9 µM; IC50 (HSV-2 35D; Human alphaherpesvirus 2): 6 µM; IC50 (HSV-1 KOS-M1 (V823A); Human alphaherpesvirus 1, read-out: Plaque Reduction Assay - IC50 (μM) HSV-1 KOS-M1): 4.4 µM; IC50 (HSV-2 MS-M1 (V826A); Human alphaherpesvirus 2, read-out: Plaque Reduction Assay - IC50 (μM) HSV-2 MS-M1): 2.8 µM
Cn1cc(C(=O)NCc2ccc(Cl)cc2)c(=O)c2cc(CN3CCOCC3)sc21 [Compound 3] | 0.8 µM | 6.2 µM | 4 µM | 1.5 µM | > 50 µM | > 50 µM | IC50 (HSV-1 Patton): 7.7 µM; IC50 (HSV-1 DJL): 1.8 µM; IC50 (HSV-2 MS; [11]): 2.8 µM; IC50 (HSV-1 F): 2.2 µM; IC50 (HSV-2 186): 3.2 µM; IC50 (HSV-1 KOS; [12]): 3.2 µM; IC50 (HSV-2 35D): 5 µM
Cn1nc(C(=O)NCc2ccc(Cl)cc2)c(=O)c2cc(C#CCO)ccc21 [Compound 14] | 1.6 µM | 18.4 µM | 28.4 µM | 0.9 µM | > 50 µM | > 50 µM | –
O=C(NCc1ccc(Cl)cc1)c1cnc2ccc(CCCO)cc2c1O [Compound 7] | 8.8 µM | 3.4 µM | 6.5 µM | 0.3 µM | > 50 µM | 27.9 µM | –
Cc1nc2c(cc1C#CCO)c(=O)c(C(=O)NCc1ccc(Cl)cc1)cn2C [Compound 15] | 5.9 µM | 7.7 µM | > 50 µM | 0.7 µM | > 50 µM | > 50 µM | –
O=C(NCc1ccc(Cl)cc1)c1cn2c3c(cc(CN4CCOCC4)cc3c1=O)OCC2 [Compound 4] | 2.1 µM | – | 4.2 µM | 0.6 µM | > 50 µM | 28.4 µM | IC50 (HSV-1 Patton): 4.3 µM; IC50 (HSV-1 DJL): 2.2 µM; IC50 (HSV-2 MS; [11]): 2.5 µM; IC50 (HSV-1 F): 2.1 µM; IC50 (HSV-2 186): 2.3 µM; IC50 (HSV-1 KOS; [12]): 3.2 µM; IC50 (HSV-2 35D): 3.2 µM
Nc1ccn([C@@H]2O[C@H](CO)[C@@H](O)[C@@H]2O)c(=O)n1 [AraC, Arabinosylcytidine, reference compound] | 0.2 µM | – | 0.2 µM | – | – | 0.1 µM | –
Cc1cn([C@@H]2O[C@H](CO)[C@@H](O)[C@@H]2O)c(=O)[nH]c1=O [AraT, Arabinosylthymine, reference compound] | 6.6 µM | – | 11.6 µM | – | 3.6 µM | 3.6 µM | –
Cn1cc(C(=O)NCc2ccc(Cl)cc2)c(=O)c2cc(CN3CCOCC3)cc(C#CCO)c21 [Compound 12] | 0.4 µM | 1.1 µM | 1.3 µM | 0.2 µM | > 50 µM | 12.5 µM | –
O=C(NCc1ccc(Cl)cc1)c1cn2c(CO)cc3cc(CN4CCOCC4)cc(c1=O)c32 [Compound 9] | 0.9 µM | 3.1 µM | 1.9 µM | < 0.1 µM | > 50 µM | 48.7 µM | –
